# PubChem BioAssay AID2060497 (Molecular Pharmacology Branch, DTP, NCI, 2025)
# pIC50: −log10 of the molar value.
# Tested on: 317291-083-R-J1-PDC complex spheroids, viability
# Experiment: Anticancer human tumor 317291-083-R-J1-PDC patient-derived soft tissue sarcoma cell line growth inhibition [GQUAD]
# Conditions: for pIC50: curve of first compound; for viability, T/C: stronger effect = lower value
# Outline: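 Multi-cell-type spheroids of tumor cells with HUVEC and mesenchymal stem cells, treated with drug combinations. Concentrations descend in half-log steps from near clinical Cmax, or from 10 microM where Cmax is unknown; viability read-out.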
# [1] = second compound 0.0316 µM, first compound 0.0316 µM
# [2] = second compound 0.0316 µM, first compound 0.1 µM
# [3] = second compound 0.0316 µM, first compound 0.316 µM
# [4] = second compound 0.0316 µM, first compound 1 µM
# [5] = second compound 0.0316 µM, first compound 3.16 µM
# [6] = second compound 0.0316 µM, first compound 10 µM
# [7] = second compound 0.1 µM, first compound 0.0316 µM
# [8] = second compound 0.1 µM, first compound 0.1 µM
# [9] = second compound 0.1 µM, first compound 0.316 µM
# [10] = second compound 0.1 µM, first compound 1 µM
# [11] = second compound 0.1 µM, first compound 3.16 µM
# [12] = second compound 0.1 µM, first compound 10 µM
# [13] = second compound 0.316 µM, first compound 0.0316 µM
# [14] = second compound 0.316 µM, first compound 0.1 µM
# [15] = second compound 0.316 µM, first compound 0.316 µM
# [16] = second compound 0.316 µM, first compound 1 µM
# [17] = second compound 0.316 µM, first compound 3.16 µM
# [18] = second compound 0.316 µM, first compound 10 µM
# [19] = second compound 1 µM, first compound 0.0316 µM
# [20] = second compound 1 µM, first compound 0.1 µM
# [21] = second compound 1 µM, first compound 0.316 µM
# [22] = second compound 1 µM, first compound 1 µM
# [23] = second compound 1 µM, first compound 3.16 µM
# [24] = second compound 1 µM, first compound 10 µM
# [25] = second compound 3.16 µM, first compound 0.0316 µM
# [26] = second compound 3.16 µM, first compound 0.1 µM
# [27] = second compound 3.16 µM, first compound 0.316 µM
# [28] = second compound 3.16 µM, first compound 1 µM
# [29] = second compound 3.16 µM, first compound 3.16 µM
# [30] = second compound 3.16 µM, first compound 10 µM
# [31] = second compound 10 µM, first compound 0.0316 µM
# [32] = second compound 10 µM, first compound 0.1 µM
# [33] = second compound 10 µM, first compound 0.316 µM
# [34] = second compound 10 µM, first compound 1 µM
# [35] = second compound 10 µM, first compound 3.16 µM
# [36] = second compound 10 µM, first compound 10 µM
# 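Also: spheroids exposed to compounds for one week before readout.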
# 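For viability, T/C in this document: percent viability relative to DMSO vehicle wells taken as 100%.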
smiles,measurement,setting,value
COc1cc(C2c3cc4c(cc3C(OC3OC5COC(C)OC5C(O)C3O)C3COC(=O)C23)OCO4)cc(OC)c1O (stereo unspecified) + Cc1cnc(CNC(=O)c2c(=O)c3ccc(N4CCCN(C)CC4)nc3n3c2sc2ccccc23)cn1,pIC50,second compound 0.0316 µM,6.63
same,pIC50,second compound 0.1 µM,7.16
same,pIC50,second compound 0.316 µM,7.18
same,pIC50,second compound 1 µM,> 7.50
same,pIC50,second compound 3.16 µM,> 7.50
same,pIC50,second compound 10 µM,> 7.50
same,"viability, T/C",[1],81.6%
same,"viability, T/C",[2],68.3%
same,"viability, T/C",[3],41.4%
same,"viability, T/C",[4],27.7%
same,"viability, T/C",[5],15.4%
same,"viability, T/C",[6],11.6%
same,"viability, T/C",[7],57.5%
same,"viability, T/C",[8],46.3%
same,"viability, T/C",[9],35.3%
same,"viability, T/C",[10],24.9%
same,"viability, T/C",[11],15.6%
same,"viability, T/C",[12],9.12%
same,"viability, T/C",[13],70.5%
same,"viability, T/C",[14],39.3%
same,"viability, T/C",[15],19.3%
same,"viability, T/C",[16],18.8%
same,"viability, T/C",[17],16.2%
same,"viability, T/C",[18],10.7%
same,"viability, T/C",[19],35.9%
same,"viability, T/C",[20],28.4%
same,"viability, T/C",[21],22.7%
same,"viability, T/C",[22],18.7%
same,"viability, T/C",[23],9.1%
same,"viability, T/C",[24],8.25%
same,"viability, T/C",[25],22.9%
same,"viability, T/C",[26],41.3%
same,"viability, T/C",[27],14.7%
same,"viability, T/C",[28],13.1%
same,"viability, T/C",[29],9.56%
same,"viability, T/C",[30],3.72%
same,"viability, T/C",[31],28.6%
same,"viability, T/C",[32],14.6%
same,"viability, T/C",[33],9.56%
same,"viability, T/C",[34],10.8%
same,"viability, T/C",[35],5.33%
same,"viability, T/C",[36],11.2%
CC[C@@]1(O)C(=O)OCc2c1cc1n(c2=O)Cc2cc3c(CN(C)C)c(O)ccc3nc2-1 + Cc1[nH]c2ccc(F)cc2c1-c1nc2c3cccnc3c3ncccc3c2[nH]1,pIC50,second compound 0.0316 µM,7.27
same,pIC50,second compound 0.1 µM,7.21
same,pIC50,second compound 0.316 µM,7.25
same,pIC50,second compound 1 µM,7.22
same,pIC50,second compound 3.16 µM,7.33
same,pIC50,second compound 10 µM,7.61
same,"viability, T/C","second compound 0.0316 µM, first compound 0.000999 µM",97.6%
same,"viability, T/C","second compound 0.0316 µM, first compound 0.00316 µM",92%
same,"viability, T/C","second compound 0.0316 µM, first compound 0.00999 µM",83%
same,"viability, T/C",[1],72.3%
same,"viability, T/C","second compound 0.0316 µM, first compound 0.0999 µM",25%
same,"viability, T/C",[3],14.7%
same,"viability, T/C","second compound 0.1 µM, first compound 0.000999 µM",106%
same,"viability, T/C","second compound 0.1 µM, first compound 0.00316 µM",91.9%
same,"viability, T/C","second compound 0.1 µM, first compound 0.00999 µM",91.2%
same,"viability, T/C",[7],87.6%
same,"viability, T/C","second compound 0.1 µM, first compound 0.0999 µM",22.5%
same,"viability, T/C",[9],17.7%
same,"viability, T/C","second compound 0.316 µM, first compound 0.000999 µM",96.9%
same,"viability, T/C","second compound 0.316 µM, first compound 0.00316 µM",97.9%
same,"viability, T/C","second compound 0.316 µM, first compound 0.00999 µM",90.9%
same,"viability, T/C",[13],75.7%
same,"viability, T/C","second compound 0.316 µM, first compound 0.0999 µM",24.1%
same,"viability, T/C",[15],9.9%
same,"viability, T/C","second compound 1 µM, first compound 0.000999 µM",98.8%
same,"viability, T/C","second compound 1 µM, first compound 0.00316 µM",96.6%
same,"viability, T/C","second compound 1 µM, first compound 0.00999 µM",108%
same,"viability, T/C",[19],74.4%
same,"viability, T/C","second compound 1 µM, first compound 0.0999 µM",30.9%
same,"viability, T/C",[21],9.35%
same,"viability, T/C","second compound 3.16 µM, first compound 0.000999 µM",97.6%
same,"viability, T/C","second compound 3.16 µM, first compound 0.00316 µM",100%
same,"viability, T/C","second compound 3.16 µM, first compound 0.00999 µM",80.4%
same,"viability, T/C",[25],64.6%
same,"viability, T/C","second compound 3.16 µM, first compound 0.0999 µM",26.2%
same,"viability, T/C",[27],9.6%
same,"viability, T/C","second compound 10 µM, first compound 0.000999 µM",63.8%
same,"viability, T/C","second compound 10 µM, first compound 0.00316 µM",69.1%
same,"viability, T/C","second compound 10 µM, first compound 0.00999 µM",84%
same,"viability, T/C",[31],43.7%
same,"viability, T/C","second compound 10 µM, first compound 0.0999 µM",18.7%
same,"viability, T/C",[33],8.82%
O=C(c1cc(Cc2n[nH]c(=O)c3ccccc23)ccc1F)N1CCN(C(=O)C2CC2)CC1 + CN(C)c1ccc(Nc2c3ccc(NC(=O)CCN4CCCC4)cc3nc3cc(NC(=O)CCN4CCCC4)ccc23)cc1,pIC50,second compound 0.0316 µM,5.07
same,pIC50,second compound 0.1 µM,5.07
same,pIC50,second compound 0.316 µM,5.01
same,pIC50,second compound 1 µM,> 7.50
same,pIC50,second compound 3.16 µM,> 7.50
same,pIC50,second compound 10 µM,> 7.50
same,"viability, T/C",[1],107%
same,"viability, T/C",[2],88.7%
same,"viability, T/C",[3],93.2%
same,"viability, T/C",[4],92.8%
same,"viability, T/C",[5],84.9%
same,"viability, T/C",[6],44.1%
same,"viability, T/C",[7],111%
same,"viability, T/C",[8],93.4%
same,"viability, T/C",[9],101%
same,"viability, T/C",[10],96.7%
same,"viability, T/C",[11],76.3%
same,"viability, T/C",[12],45.8%
same,"viability, T/C",[13],84.4%
same,"viability, T/C",[14],83.3%
same,"viability, T/C",[15],83.8%
same,"viability, T/C",[16],67.6%
same,"viability, T/C",[17],73.5%
same,"viability, T/C",[18],48%
same,"viability, T/C",[19],55%
same,"viability, T/C",[20],36.5%
same,"viability, T/C",[21],44.2%
same,"viability, T/C",[22],48.1%
same,"viability, T/C",[23],52.3%
same,"viability, T/C",[24],45.8%
same,"viability, T/C",[25],34.7%
same,"viability, T/C",[26],27.9%
same,"viability, T/C",[27],22.8%
same,"viability, T/C",[28],21.4%
same,"viability, T/C",[29],16.6%
same,"viability, T/C",[30],15.9%
same,"viability, T/C",[31],5%
same,"viability, T/C",[32],12.6%
same,"viability, T/C",[33],14.9%
same,"viability, T/C",[34],11.7%
same,"viability, T/C",[35],31.9%
same,"viability, T/C",[36],6.71%
